Article PMC12692036, “Multi-Target Screening of Anti-Diabetic and Antioxidant Potential Bioactive Constituents from Dandelion” (Foods, 2025)

What was measured:
α-glucosidase [1] = test: α-Glucosidase inhibitory activity (pNPG); type: biochemical, Saccharomyces cerevisiae; settings: mean ± SD, n = 3
Protocol: α-Glucosidase inhibitory activity was examined based on a modified method described previously. […] Then, 40 μL of 5 mmol·L^−1 pNPG was added, and the reaction was for an additional 15 min. Finally, 80 μL of 1 mol·L^−1 sodium carbonate was added to terminate the reaction, and measured its absorbance value at a wavelength of 405 nm by ReadMax1200 microplate reader (Shanpu, Shanghai, China). Each experiment was conducted in triplicate. […] The IR was calculated according to Equation (1) in Section 2.5.1.

α-amylase [2] = molecular target: T1, α-amylase (Sus scrofa, UniProt P00690); test: Affinity ultrafiltration MTAUF-UPLC-MS/MS of DE with α-amylase; type: binding, porcine; settings: peak area with active / inactivated enzyme; DE 5.0 mg·mL^−1
T1 construct: purchased Adamas-beta Reagents Co., Ltd. (Shanghai, China); host or cells: porcine pancreas
T1 sequence (P00690 16-511): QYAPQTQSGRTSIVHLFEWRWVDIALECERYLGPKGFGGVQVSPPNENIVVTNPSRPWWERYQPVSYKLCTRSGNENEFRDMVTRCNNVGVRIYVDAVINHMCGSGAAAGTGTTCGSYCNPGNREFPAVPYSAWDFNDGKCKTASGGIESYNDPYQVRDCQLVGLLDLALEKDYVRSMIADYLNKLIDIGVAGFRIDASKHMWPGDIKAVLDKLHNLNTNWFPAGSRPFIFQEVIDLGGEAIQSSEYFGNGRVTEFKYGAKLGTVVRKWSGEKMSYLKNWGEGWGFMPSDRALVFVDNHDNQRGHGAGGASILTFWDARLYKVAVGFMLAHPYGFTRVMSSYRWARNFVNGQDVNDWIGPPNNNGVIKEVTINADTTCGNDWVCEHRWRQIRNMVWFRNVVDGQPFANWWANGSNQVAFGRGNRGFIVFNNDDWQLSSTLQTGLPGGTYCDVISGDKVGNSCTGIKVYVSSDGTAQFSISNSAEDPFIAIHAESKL
Protocol: (§1) Based on hypoglycemic inhibitory activities, potential inhibitors in the DE extract were screened using the MTAUF-UPLC-MS/MS method, as previously described. Firstly, α-amylase or α-glucosidase enzymes were inactivated by heating in boiling water for 20 min. Secondly, 100 µL of DE sample (5.0 mg·mL^−1 in PBS, pH = 6.8), 20 µL of either 2 U·mL^−1 active or inactivated enzyme, and 190 µL PBS were mixed, shaken well, and incubated at 37 °C for 60 min. […] This step was repeated 3 times. […] This step was also repeated 3 times. The resulting solution was dried and reconstituted in 50 µL methanol for further UPLC-QTOF-MS/MS analysis.

α-glucosidase [3] = test: Affinity ultrafiltration MTAUF-UPLC-MS/MS of DE with α-glucosidase; type: binding, Saccharomyces cerevisiae; settings: peak area with active / inactivated enzyme; DE 5.0 mg·mL^−1
Protocol: as §1

α-amylase [4] = molecular target: T1, α-amylase; test: α-Amylase inhibitory activity (DNS method); type: biochemical, porcine; settings: mean ± SD, n = 3
Protocol: α-Amylase inhibitory activity was examined based on a modified method described previously. Firstly, 200 µL of sample test solution and 100 µL of 1 U·mL^−1 α-amylase solution were transferred into 5 mL centrifuge tube, and incubated in a 37 °C constant temperature water bath for 10 min. Secondly, 200 µL of 1% starch solution was added and incubated in a 37 °C constant temperature water bath for 5 min. Thirdly, 500 µL of DNS reagent was prepared, added, immersed and reacted in boiling water for 5 min [7]. Subsequently, the reaction solution was removed from boiling water and cooled for 10 min. Finally, 200 µL of the reaction solution was transferred into a 96-well microplate, and measured its absorbance value at a wavelength of 540 nm by ReadMax1200 microplate reader. Each experiment was conducted in triplicate.

[5] = DPPH radical scavenging capacity; settings: mean ± SD, n = 3
Protocol: This method had been slightly modified according to the literature. Firstly, 10 μL of sample test solution and 190 μL of 0.1 mmol·L^−1 DPPH working solution were added to a 96-well microplate, shaken well, and reacted in the dark for 30 min. The absorbance at 517 nm was measured by ReadMax1200 microplate reader. The positive control was Trolox and Vc, and the blank control was anhydrous ethanol, with each experiment conducted in triplicate. The standard curve was plotted to obtain the linear regression equation. […] The TEAC values were calculated from the standard curve of Trolox and expressed as millimoles of Trolox equivalents per gram of sample (mmol TE/g).

[6] = ABTS radical scavenging capacity; settings: mean ± SD, n = 3
Protocol: This method had been slightly modified according to the literature. Firstly, 1.32 mg·mL^−1 potassium persulfate and 3.84 mg·mL^−1 ABTS^+• were mixed in a volume ratio of 1:1 to obtain the ABTS^+• mother liquor. The ABTS^+• mother liquor was stored in a dark environment for 12–16 h, diluted with ethanol, and adjusted to an absorbance range of 0.695 ± 0.705 at 734 nm to obtain an ABTS^+• working solution. Secondly, 100 μL of sample test solution and 190 μL ABTS^+• working solution were added to a 96-well microplate, shaken well, and reacted in the dark for 30 min. Finally, the absorbance at 734 nm was measured by ReadMax1200 microplate reader. The positive control was Trolox and Vc, and the blank control was anhydrous ethanol, with each experiment conducted in triplicate. The ABTS radical scavenging capacities were also expressed as IC50 and TEAC values, calculating according to Section 2.6.1. The standard curve was plotted to obtain the linear regression equation. The ABTS RCR was calculated as follows: (3) ABTS RCR=AABTS−ASample/AABTS×100% where AABTS and ASample were the absorbance values of blank control and sample, respectively.

[7] = FRAP iron ion reduction capacity; settings: mean ± SD, n = 3
Protocol: This method had been slightly modified according to the literature. Firstly, 40 mmol·L^−1 HCl, 100 mmol·L^−1 FeSO4, 20 mmol·L^−1 FeCl3, 0.3 mol·L^−1 acetic acid sodium acetate buffer, and 10 mmol·L^−1 TPTZ were carefully prepared, respectively. Secondly, the TPTZ working solution was prepared by mixing 20 mmol·L^−1 FeCl3, 0.3 mol·L^−1 acetic acid sodium acetate buffer, and 10 mmol·L^−1 TPTZ in a volume ratio of 1:10:1. Thirdly, 100 μL of sample test solution and 190 μL TPTZ working solution were added to a 96-well microplate, shaken well, and reacted at room temperature for 10 min. Finally, the absorbance at 593 nm was measured by ReadMax1200 microplate reader. The positive control was Trolox and Vc, and the blank control was anhydrous ethanol, with each experiment conducted in triplicate. The FRAP assay results were quantified by extrapolating the absorbance values to the ferrous sulfate standard curve, with the antioxidant capacity expressed as millimolar ferrous ion equivalents per gram of dry sample weight (mmol Fe^2+·g^−1). The FRAP iron ion reduction capacities were also expressed as TEAC values, calculated according to Section 2.6.1.

Row | IC50 of α-glucosidase inhibitory activity (α-glucosidase [1]) [µg/mL] | relative binding affinity (RBA) toward α-amylase (α-amylase [2]) | relative binding affinity (RBA) toward α-glucosidase (α-glucosidase [3]) | IC50 of α-amylase inhibitory activity (α-amylase [4]) [µg/mL] | DPPH radical scavenging capacity IC50 [5] [µg/mL] | ABTS radical scavenging capacity IC50 [6] [µg/mL] | IC50 (α-amylase [4]) [µM] | Structure (SMILES) | iron ion reducing capacity, equivalent concentration of ferrous ions (FRAP) [7] [mmol Fe^2+·g^−1]
1 | 35.99 ± 0.42 | 1.48 ± 0.03 | 1.54 ± 0.03 | – | – | – | – | O=c1cc(-c2ccc(O)cc2)oc2cc(O)cc(O)c12 [Compound 14, apigenin] | –
2 | 84.84 ± 4.31 | 1.71 ± 0.07 | less than 1 | 254.00 ± 0.78 | 5.55 ± 0.02 | 3.01 ± 0.03 | – | O=C(/C=C/c1ccc(O)c(O)c1)O[C@H]1[C@H](O)C[C@](O)(C(=O)O)C[C@H]1OC(=O)/C=C/c1ccc(O)c(O)c1 [Compound 2, isochlorogenic acid C] | 107.35 ± 3.42
3 | – | 1.83 ± 0.07 | less than 1 | – | 1.96 ± 0.05 | 2.47 ± 0.05 | – | O=c1cc(-c2ccc(O)c(O)c2)oc2cc(O)cc(O)c12 [Compound 7, luteolin] | –
4 | – | 1.05 ± 0.02 | less than 1 | – | – | – | – | COc1ccc(C=CC(=O)O)cc1OC [Compound 6, 3,4-dimethoxy cinnamic acid] | –
5 | – | 1.53 ± 0.06 | 1.11 ± 0.03 | – | – | – | – | O=C1C[C@@H](c2ccccc2)Oc2cc(O)cc(O)c21 [Compound 25, pinocembrin] | –
6 | – | less than 1 | 1.46 ± 0.09 | – | – | – | – | C=C1CC[C@]2(C)CC[C@]3(C)[C@H](CC[C@@H]4[C@@]5(C)CC[C@H](O)C(C)(C)[C@@H]5CC[C@]43C)[C@H]2[C@@H]1C [Compound 48, taraxasterol] | –
7 | – | – | – | – | 5.18 ± 0.02 | 3.93 ± 0.04 | 99.5 | O=c1c(O)c(-c2ccc(O)cc2)oc2cc(O)cc(O)c12 [Compound 15, kaempferol] | 57.56 ± 1.33
8 | – | 1.66 ± 0.08 | 1.64 ± 0.05 | – | – | – | – | O=c1cc(-c2ccccc2)oc2cc(O)cc(O)c12 [Compound 24, chrysin] | –
9 | – | less than 1 | 2.47 ± 0.07 | – | – | – | – | O=C(O)c1ccc(O)cc1 [Compound 3, 4-hydroxybenzoic acid] | –
10 | – | 2.13 ± 0.07 | 2.09 ± 0.06 | – | – | – | – | COc1cc(O)c2c(=O)cc(-c3ccc(O)cc3)oc2c1 [Compound 27, genkwanin] | –
11 | – | less than 1 | – | – | – | – | – | COc1cc(-c2cc(=O)c3c(O)cc(O)cc3o2)cc(OC)c1O[C@H](CO)[C@@H](O)c1ccc(O)cc1 [Compound 17, calquiquelignan D] | –
12 | – | – | – | – | 4.23 ± 0.04 | 2.12 ± 0.02 | – | O=c1c(O)c(-c2ccc(O)c(O)c2)oc2cc(O)cc(O)c12 [Compound 8, quercetin] | 56.40 ± 1.81

Row | Structure (SMILES) | IC50 of α-glucosidase inhibitory activity (α-glucosidase [1]) [µg/mL] | relative binding affinity (RBA) toward α-amylase (α-amylase [2]) | relative binding affinity (RBA) toward α-glucosidase (α-glucosidase [3]) | IC50 of α-amylase inhibitory activity (α-amylase [4]) [µg/mL] | DPPH radical scavenging capacity IC50 [5] [µg/mL] | ABTS radical scavenging capacity IC50 [6] [µg/mL] | IC50 (α-amylase [4]) [µM] | iron ion reducing capacity, equivalent concentration of ferrous ions (FRAP) [7] [mmol Fe^2+·g^−1]
13 | COc1cc(/C=C/C(=O)O)ccc1O [Compound 5, ferulic acid] | – | 1.08 ± 0.05 | 1.35 ± 0.05 | – | 6.11 ± 0.06 | 1.20 ± 0.00 | – | –
14 | O=c1c(-c2ccc(O)cc2)coc2cc(O)cc(O)c12 [Compound 13, genistein] | – | 1.15 ± 0.09 | 1.60 ± 0.03 | – | – | 18.26 ± 0.52 | – | –
15 | COc1cc(-c2cc(=O)c3c(O)cc(O)cc3o2)cc(OC)c1O [Compound 18, tricin] | – | less than 1 | – | – | – | – | – | –
